Results: patent US9540391B2, “Isomannide derivatives as inhibitors of soluble epoxide hydrolase” (SANOFI, priority 2013, dated 2017)
Where a name gives a salt, the structure may show the parent alone.

Target: T1, recombinant sEH (Homo sapiens, UniProt P34913)
T1 construct: made in house; host or cells: Sf9 insect cells
T1 sequence (P34913 1-555): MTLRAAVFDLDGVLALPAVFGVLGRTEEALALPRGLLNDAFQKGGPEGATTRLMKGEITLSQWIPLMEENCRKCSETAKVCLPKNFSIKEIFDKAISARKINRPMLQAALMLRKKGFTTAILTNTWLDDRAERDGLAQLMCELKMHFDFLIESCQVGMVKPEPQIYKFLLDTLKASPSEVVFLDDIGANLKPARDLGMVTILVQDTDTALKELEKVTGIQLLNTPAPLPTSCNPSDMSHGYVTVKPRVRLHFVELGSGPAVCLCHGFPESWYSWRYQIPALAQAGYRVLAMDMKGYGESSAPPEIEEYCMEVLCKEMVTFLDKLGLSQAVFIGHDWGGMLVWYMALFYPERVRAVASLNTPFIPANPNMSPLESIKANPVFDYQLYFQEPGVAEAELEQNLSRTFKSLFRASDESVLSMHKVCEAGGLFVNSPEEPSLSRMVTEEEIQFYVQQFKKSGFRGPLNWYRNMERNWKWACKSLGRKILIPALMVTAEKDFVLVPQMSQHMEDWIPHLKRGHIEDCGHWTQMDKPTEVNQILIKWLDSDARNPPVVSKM
Experiment: biochemical screening assay for inhibition of soluble epoxide hydrolase (fluorometric, Phome substrate)
Procedure: The ability of the compounds of the formula I to inhibit soluble epoxide hydrolase can be determined as follows:
Compounds were tested in a biochemical screening assay using recombinant sEH purified from Sf9 insect cells and an artificial substrate, (3-phenyl-oxiranyl)-acetic acid cyano-(6-methoxy-naphtalen-2-yl)-methyl ester, Phome. The biochemical assay was performed in analogy to a fluorometric method described in the literature (P. D. Jones et al., Anal. Biochem. 2005, 343, 66-75). The assay principle bases on the sEH-catalyzed hydrolysis of an artificial α-cyano-ester substrate. 0-deacetylation liberates a cyanohydrin intermediate that rapidly decomposes to the highly fluorescent 6-methoxy-2-naphtaldehyde. To discriminate sample autofluorescence, the assay was carried out as a kinetic measurement with two time points. The first measurement is performed immediately before addition of the substrate and the second measurement is done after completion of the assay. The assay format is either in 96- or in 384-well format. Details of the assay using a 96-well plate format are described below. 40 μL recombinant sEH enzyme and 5 μL test compound are pre-incubated for 15 minutes at 30° C. Following pre-incubation, the reaction is started by addition of 5 μL Phome. The assay mixture containing 2 nM final sEH concentration, test compound ranging in a concentration from 0.0001-10 μM and 5 μM Phome is incubated for 60 minutes at 30° C.
Fluorescence can be measured with any suitable detector for instance a TECAN Safire or Tecan Ultra at […]. % inhibition of recombinant sEH activity is used for calculation of corresponding IC50 values as illustrated and described in the examples.
The NCBI gene bank reference sequence with the accession number NM_001979 for EPHX2/sEH was applied for recombinant protein production:
The following commercially available materials have been used: • Incubation reagent: 25 mM Hepes (Sigma-Aldrich, Cat. No H-3375), 0.01% bovine albumin (Sigma-Aldrich Cat. No PA9205) • Substrate: 3-Phenyl-oxiranyl)-acetic acid cyano-(6-methoxy-naphtalen-2-yl)-methyl ester, Phome (Biozol Cat. No 10003134) • Microtiter plates: 96-well plates (Greiner Cat. No 655180; Costar Cat. No 3915)

Row | Structure (SMILES) | IC50
1 | Cc1ncccc1O[C@H]1CO[C@H]2[C@@H]1OC[C@@H]2NC(=O)NCc1cn(C)cn1 [Example 198, 1-(1-Methyl-1H-imidazol-4-ylmethyl)-3-[(3S,3aR,6S,6aS)-6-(2-methyl-pyridin-3-yloxy)-hexahydro-furo[3,2-b]furan-3-yl]-urea] | 997 nM
2 | O=C(N[C@H]1CO[C@H]2[C@@H]1OC[C@@H]2Oc1ccc(F)cc1)N1CCC(F)(F)CC1 [Example 94, 4,4-difluoro-piperidine-1-carboxylic acid [(3S,3aR,6S,6aS)-6-(4-fluoro-phenoxy)-hexahydro-furo[3,2-b]furan-3-yl]-amide] | 2480 nM
3 | Cc1ncccc1O[C@H]1CO[C@H]2[C@@H]1OC[C@@H]2NC(=O)NC(C)(C)Cc1ccc(F)cc1 [Example 185, 1-[2-(4-Fluoro-phenyl)-1,1-dimethyl-ethyl]-3-[(3S,3aR,6S,6aS)-6-(2-methyl-pyridin-3-yloxy)-hexahydro-furo[3,2-b]furan-3-yl]-urea] | 29 nM
4 | O=C(Nc1ccc(OCc2ccccc2)cc1)NC1COC2C(C#Cc3ccccc3)COC12 [Example 287, 1-(4-Benzyloxy-phenyl)-3-[(3S,3aR,6R)-6-((S)-phenylethynyl)-hexahydro-furo[3,2-b]furan-3-yl]-urea] | 82 nM
5 | Cc1ncccc1O[C@H]1CO[C@H]2[C@@H]1OC[C@@H]2NC(=O)NCCN1CCCCC1=O [Example 251, 1-[(3S,3aR,6S,6aS)-6-(2-Methyl-pyridin-3-yloxy)-hexahydro-furo[3,2-b]furan-3-yl]-3-[2-(2-oxo-piperidin-1-yl)-ethyl]-urea] | 1560 nM
6 | Cc1ncccc1OC1COC2C(NC(=O)NC3CCCN(C(=O)C(C)C)C3)COC12 [Example 84, 1-(1-Isobutyryl-piperidin-3-yl)-3-[(3S,-3aR,6S,6aS)-6-(2-methyl-pyridin-3-yloxy)-hexahydro-furo[3,2-b]furan-3-yl]-urea] | 59 nM
7 | Cc1ccc(S(=O)(=O)O[C@@H]2CO[C@H]3[C@@H]2OC[C@@H]3NC(=O)NC2CCCCC2)cc1 [Example 2, toluene-4-sulfonic acid (3R,3aS,6S,6aR)-6-(3-cyclohexyl-ureido)-hexahydro-furo[3,2-b]furan-3-yl ester] | 19 nM
8 | O=C(NCCc1cccs1)N[C@H]1CO[C@H]2[C@@H]1OC[C@@H]2C#Cc1ccsc1 [Example 313, 1-(2-Thiophen-2-yl-ethyl)-3-((3S,3aR,6S,6aR)-6-thiophen-3-ylethynyl-hexahydro-furo[3,2-b]furan-3-yl)-urea] | 56 nM
9 | N#Cc1ncccc1O[C@H]1CO[C@H]2[C@@H]1OC[C@@H]2NC(=O)NC1CCCCC1 [Example 40, 1-[(3S,3aR,6S,6aS)-6-(2-Cyano-pyridin-3-yloxy)-hexahydro-furo[3,2-b]furan-3-yl]-3-cyclohexyl-urea] | 11 nM
10 | O=C(NCc1ccc(F)cc1)NC1COC2C(C=Cc3ccccc3)COC12 [Example 325, 1-(4-Fluoro-benzyl)-3-[(3S,3aR,6R)-6-((S)-(Z)-styryl)-hexahydro-furo[3,2-b]furan-3-yl]-urea] | 75 nM
11 | O=C(NC1CCCCC1)N[C@H]1CO[C@@H]2[C@@H](CCc3ccc4c(c3)OCO4)CO[C@@H]21 [Example 347, 1-[(3S,3aR,6S,6aR)-6-(2-benzo[1,3]dioxol-5-yl-ethyl)-hexahydro-furo[3,2-b]furan-3-yl]-3-cyclohexyl-urea] | 128 nM
12 | O=C(NC1CCCCC1)N[C@H]1CO[C@H]2[C@@H]1OC[C@H]2O [Example 1, 1-cyclohexyl-3-((3S,3aR,6R,6aR)-6-hydroxy-hexahydro-furo[3,2-b]furan-3-yl)-urea] | 305 nM
13 | O=C(NC1CCCCC1)N[C@H]1CO[C@H]2[C@@H]1OC[C@@H]2/C=C\c1ccccn1 [Example 334, 1-Cyclohexyl-3-[(3S,3aR,6S,6aR)-6-((Z)-2-pyridin-2-yl-vinyl)-hexahydro-furo[3,2-b]furan-3-yl]-urea; trifluoroacetate] | 159 nM
14 | O=C(NC1CCCCC1)N[C@H]1CO[C@H]2[C@@H]1OC[C@@H]2Oc1cc(Br)ccc1Cl [Example 147, 1-[(3S,3aR,6S,6aS)-6-(5-Bromo-2-chloro-phenoxy)-hexahydro-furo[3,2-b]furan-3-yl]-3-cyclohexyl-urea] | 2 nM
15 | CCOC(=O)c1cccc(O[C@H]2CO[C@H]3[C@@H]2OC[C@@H]3NC(=O)NC2CCCCC2)c1 [Example 141, 3-[(3S,3aS,6S,6aR)-6-(3-Cyclohexyl-ureido)-hexahydro-furo[3,2-b]furan-3-yloxy]-benzoic acid ethyl ester] | 2 nM
16 | O=C(NC1CCCCC1)N[C@H]1CO[C@H]2[C@@H]1OC[C@@H]2Oc1c[nH]c2ccccc12 [Example 5, 1-cyclohexyl-3-[(3S,3aR,6S,6aS)-6-(1H-indol-3-yloxy)-hexahydro-furo[3,2-b]furan-3-yl]-urea] | 3 nM
17 | O=C(NC1CCCCC1)N[C@H]1CO[C@H]2[C@@H]1OC[C@@H]2Oc1ccccc1-c1ccccc1 [Example 23, 1-[(3S,3aR,6S,6aS)-6-(Biphenyl-2-yloxy)-hexahydro-furo[3,2-b]furan-3-yl]-3-cyclohexyl-urea] | 1 nM
18 | C[C@@H](NC(=O)N[C@H]1CO[C@H]2[C@@H]1OC[C@@H]2Oc1ccc(F)cc1)c1ccc(F)cc1 [Example 159, 1-[(3S,3aR,6S,6aS)-6-(4-Fluoro-phenoxy)-hexahydro-furo[3,2-b]furan-3-yl]-3-[(R)-1-(4-fluoro-phenyl)-ethyl]-urea] | 5 nM
19 | Cc1ncccc1O[C@H]1CO[C@H]2[C@@H]1OC[C@@H]2NC(=O)NCc1ccccn1 [Example 172, 1-[(3S,3aR,6S,6aS)-6-(2-Methyl-pyridin-3-yloxy)-hexahydro-furo[3,2-b]furan-3-yl]-3-pyridin-2-ylmethyl-urea] | 1240 nM
20 | O=C(NC1CCCCC1)N[C@H]1CO[C@H]2[C@@H]1OC[C@@H]2Oc1ccc(C(=O)O)cc1 [Example 11, 4-[(3S,3aS,6S,6aR)-6-(3-cyclohexyl-ureido)-hexahydro-furo[3,2-b]furan-3-yloxy]-benzoic acid] | 5 nM
21 | O=C(Nc1ccc(C(F)(F)F)cc1)NC1COC2C(C=Cc3ccsc3)COC12 [Example 342, 1-[(3S,3aR,6S,6aR)-6-((Z)-2-Thio-phen-3-yl-vinyl)-hexahydro-furo[3,2-b]furan-3-yl]-3-(4-trifluoromethyl-phenyl)-urea] | 17 nM
22 | O=C(Nc1ccccc1)NC1COC2C(C=Cc3ccccc3)COC12 [Example 323, 1-Phenyl-3-[(3S,3aR,6R)-6-((S)-(Z)-styryl)-hexahydro-furo[3,2-b]furan-3-yl]-urea] | 190 nM
23 | O=C(NC1CCCCC1)N[C@H]1CO[C@H]2[C@@H]1OC[C@@H]2Oc1ccc(C(F)(F)F)nc1 [Example 42, 1-Cyclohexyl-3-[(3S,3aR,6S,6aS)-6-(6-trifluoromethyl-pyridin-3-yloxy)-hexahydro-furo[3,2-b]furan-3-yl]-urea] | 47 nM
24 | Cc1ncccc1O[C@H]1CO[C@H]2[C@@H]1OC[C@@H]2NC(=O)N[C@H]1C[C@@H]2CC[C@H]1C2 [Example 181, 1-(1S,2S,4R)-Bicyclo[2.2.1]hept-2-yl-3-[(3S,3aR,6S,6aS)-6-(2-methyl-pyridin-3-yloxy)-hexahydro-furo[3,2-b]furan-3-yl]-urea] | 1 nM
25 | Cc1ncccc1O[C@H]1CO[C@H]2[C@@H]1OC[C@@H]2NC(=O)NC1COC(C)(C)OC1 [Example 80, 1-(2,2-dimethyl-[1,3]dioxan-5-yl)-3-[(3S,3aR,6S,6aS)-6-(2-methyl-pyridin-3-yloxy)-hexahydro-furo[3,2-b]furan-3-yl]-urea] | 1160 nM
26 | CCOC(=O)CC[C@H]1CO[C@H]2[C@@H]1OC[C@@H]2NC(=O)NC1CCCCC1 [Example 376, 3-[(3S,3aR,6S,6aR)-6-(3-Cyclohexyl-ureido)-hexahydro-furo[3,2-b]furan-3-yl]-propionic acid ethyl ester] | 26 nM
27 | Cc1ccnc(C)c1O[C@H]1CO[C@H]2[C@@H]1OC[C@@H]2NC(=O)NC1CCCCC1 [Example 37, 1-Cyclohexyl-3-[(3S,3aR,6S,6aS)-6-(2,4-dimethyl-pyridin-3-yloxy)-hexa-hydro-furo[3,2-b]furan-3-yl]-urea] | 1 nM
